IC50 and melting point data for 19 compounds are collected here from PMC6009863, “Symmetric molecules with 1,4-triazole moieties as potent inhibitors of tumour-associated lactate dehydrogenase-A” (Journal of Enzyme Inhibition and Medicinal Chemistry, 2017).

One data set deals with T1, recombinant human LDHA protein (Homo sapiens, UniProt P00338).
T1 construct: purchased Abcam ab93699
Put plainly: LDHA inhibition assay (Lactate Dehydrogenase Assay Kit, colorimetric). The class given is biochemical. As to conditions: mean from three different assays, colorimetric assay measuring absorbance at 450 nm, errors ±5–10%. How it is done:
All 15 symmetrical compounds were evaluated for their ability to inhibit LDHA, for the comparison galloflavin as a known isoform nonselective LDHA inhibitor[20] was used. Our choice of galloflavin was based on the fact that it is extensively studied as potent anticancer agents in recent years; additionally, galloflavin is already commercially available.
Lactate Dehydrogenase Assay Kit (Abcam, ab102526) and recombinant human LDHA protein (Abcam, ab93699) were used to assess the inhibitory effect of the tested compounds. First we generated a NADH standard curve for colorimetric detection by measuring the OD (450 nm) at different molar amounts of NADH. The linear regression equation of the curve was derivatized in Graphpad Prism. Tested compounds were dissolved in DMSO and their inhibitory activity was assessed at 140 and 300 μM strength. Galloflavin (Sigma, SML0776) at the same molar concentration was used as a known LDH inhibitor. The master reaction mix composed of LDH assay buffer and 10 ng human LDHA […] per reaction was prepared. Tested compounds were added and the final reaction volume was adjusted to 50 µL. Absorbance at 450 nm was taken after 2-3 minutes (T-initial) and continued every minute for 118 mins (T-final). The change in measurement over time (delta A450) was calculated as T-final minus T-initial. The amount of NADH generated by the assay between T-initial and T-final was deduced by comparing the A450 of each sample to the standard NADH standard curve. […]
On to `NS(=O)(=O)c1ccc(NC(=O)Cn2cc(-c3cccc(-c4cn(CC(=O)Nc5ccc(S(N)(=O)=O)cc5)nn4)c3)nn2)cc1` [Compound 7a], for which the IC50 was determined as 128 µM. With `O=C(Cn1cc(-c2cccc(-c3cn(CC(=O)Nc4ccc(C(=O)O)cc4)nn3)c2)nn1)Nc1ccc(C(=O)O)cc1` [Compound 7b], the half-inhibitory concentration (IC50) worked out at 120 µM. `O=C(Cn1cc(-c2cccc(-c3cn(CC(=O)Nc4ccc([N+](=O)[O-])cc4)nn3)c2)nn1)Nc1ccc([N+](=O)[O-])cc1` [Compound 7c]: the IC50 came to 172 µM.

As for `NS(=O)(=O)c1ccc(CNC(=O)Cn2cc(-c3cccc(-c4cn(CC(=O)NCc5ccc(S(N)(=O)=O)cc5)nn4)c3)nn2)cc1` [Compound 11a], the IC50 was determined as 158 µM. Turning to `O=C(Cn1cc(-c2cccc(-c3cn(CC(=O)NCc4ccc(C(=O)O)cc4)nn3)c2)nn1)NCc1ccc(C(=O)O)cc1` [Compound 11b], the IC50 amounted to 156 µM. In the case of `NS(=O)(=O)c1ccc(NC(=O)Cn2cc(-c3cncc(-c4cn(CC(=O)Nc5ccc(S(N)(=O)=O)cc5)nn4)c3)nn2)cc1` [Compound 15a], the IC50 was 136 µM. Turning to `O=C(Cn1cc(-c2cncc(-c3cn(CC(=O)Nc4ccc(C(=O)O)cc4)nn3)c2)nn1)Nc1ccc(C(=O)O)cc1` [Compound 15b], the IC50 came to 125 µM. As to `O=C(Cn1cc(-c2cncc(-c3cn(CC(=O)Nc4ccc([N+](=O)[O-])cc4)nn3)c2)nn1)Nc1ccc([N+](=O)[O-])cc1` [Compound 15c], the IC50 came out at 156 µM. Turning to `NS(=O)(=O)c1ccc(CNC(=O)Cn2cc(-c3cncc(-c4cn(CC(=O)NCc5ccc(S(N)(=O)=O)cc5)nn4)c3)nn2)cc1` [Compound 16a], the IC50 was found to be 174 µM. For the compound `O=C(Cn1cc(-c2cncc(-c3cn(CC(=O)NCc4ccc(C(=O)O)cc4)nn3)c2)nn1)NCc1ccc(C(=O)O)cc1` [Compound 16b], the IC50 worked out at 117 µM. Take `COc1cc(-c2cn(CC(=O)Nc3ccc(S(N)(=O)=O)cc3)nn2)cc(-c2cn(CC(=O)Nc3ccc(S(N)(=O)=O)cc3)nn2)c1` [Compound 20a]: the IC50 was found to be 165 µM. In the case of `COc1cc(-c2cn(CC(=O)Nc3ccc(C(=O)O)cc3)nn2)cc(-c2cn(CC(=O)Nc3ccc(C(=O)O)cc3)nn2)c1` [Compound 20b], the 50% inhibitory concentration (IC50) was 127 µM. Turning to `COc1cc(-c2cn(CC(=O)Nc3ccc([N+](=O)[O-])cc3)nn2)cc(-c2cn(CC(=O)Nc3ccc([N+](=O)[O-])cc3)nn2)c1` [Compound 20c], the IC50 was 163 µM. As for `COc1cc(-c2cn(CC(=O)NCc3ccc(S(N)(=O)=O)cc3)nn2)cc(-c2cn(CC(=O)NCc3ccc(S(N)(=O)=O)cc3)nn2)c1` [Compound 21a], the IC50 is 173 µM.

Turning to `COc1cc(-c2cn(CC(=O)NCc3ccc(C(=O)O)cc3)nn2)cc(-c2cn(CC(=O)NCc3ccc(C(=O)O)cc3)nn2)c1` [Compound 21b], the IC50 amounted to 128 µM. `O=c1oc2c(cc1O)oc(=O)c1cc(O)c(O)c(O)c12` [Galloflavin, reference compound]: the IC50 is 157 µM.

System in another data set: not given
Experiment: not given
Conditions: not given
As to `O=C(Cn1cc(-c2cccc(-c3cn(CC(=O)Nc4ccc(C(=O)O)cc4)nn3)c2)nn1)Nc1ccc(C(=O)O)cc1` [Compound 7b], the melting point fell in the range of 291 to 292 °C.

The subject of the next data set is LDHA.
Experiment: not given
Details: method as in PMID 22417091. As to conditions: NMR and SPR fragment based hit identification series; read-out: IC50 (LDHA inhibition); cited from earlier work.
With `CCCSc1nc2ccc(NC(=O)CCNC(=O)CCCc3ccc(CC(C(=O)O)C(=O)O)cc3)cc2s1` [A], the IC50 is 0.27 µM.

The subject of the next data set is LDHA.
Experiment: not given
Details: method as in PMID 23302067. The note with it: fragment-based hit identification series; read-out: IC50 (LDHA inhibition); cited from earlier work.
As to `COc1cc(OC[C@@H](O)[C@@H](O)[C@H](O)[C@H](O)CNc2cc(F)cc(-c3ccc(C(=O)O)cn3)c2)c(Cl)cc1NC(=O)CSc1ccc(C(=O)O)cn1` [B], the IC50 is 0.12 µM.

A further data set concerns LDHA.
Experiment: not given
Details: method as in PMID 30108883. As to conditions: docking-based virtual screening hit; read-out: IC50 (LDHA inhibition potency in vitro); cited from earlier work.
With `CCc1cc(=O)c(O)c([C@@H](CC(N)=O)c2cc3ccccc3n(CC(C)C)c2=O)o1` [C], the IC50 is 0.33 µM.

The IC50 is the concentration that gives 50% inhibition. For orientation: melting point means the temperature, or range, at which the solid turns liquid.
